For assay [1] the following is noted: cited from earlier work.
Assay [2] has as its target T1, hOAT (Homo sapiens, UniProt P04181).
T1 sequence (P04181 26-439): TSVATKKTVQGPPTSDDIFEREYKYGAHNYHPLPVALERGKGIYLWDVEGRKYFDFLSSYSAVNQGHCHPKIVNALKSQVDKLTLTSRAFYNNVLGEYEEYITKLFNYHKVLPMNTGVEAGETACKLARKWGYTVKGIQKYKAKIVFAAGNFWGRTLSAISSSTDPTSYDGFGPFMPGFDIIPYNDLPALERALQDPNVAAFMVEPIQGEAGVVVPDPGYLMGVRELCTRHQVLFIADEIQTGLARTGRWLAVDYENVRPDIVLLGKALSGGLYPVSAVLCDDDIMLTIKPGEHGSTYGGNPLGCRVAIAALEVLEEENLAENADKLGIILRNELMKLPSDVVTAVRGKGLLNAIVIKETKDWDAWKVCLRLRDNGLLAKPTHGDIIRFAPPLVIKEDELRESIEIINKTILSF
Conditions: cited from earlier work.

The target in assay [3] is T1, hOAT. Kind of assay: Partition ratio. The class given is biochemical.
In a further assay the test system is Asp-AT. Kind of assay: Inhibition of Asp-AT. The format is biochemical, human. To be noted: even at high concentrations.
The target of assay [4] is T1, hOAT. Kind of assay: Stopped-flow transient state measurements of hOAT. The format is biochemical.
The target in assay [5] is T1, hOAT. In words: Dialysis of inactivated hOAT, return of enzyme activity. The format is biochemical.
Assay [6] relates to GABA-AT. In words: Inhibition of GABA-AT. The format is biochemical, human. To be noted: even at high concentrations.
The subject of another assay is Ala-AT. Kind of assay: Inhibition of Ala-AT. The class given is biochemical, human. Conditions: even at high concentrations.
Assay [7] deals with GABA-AT. Conditions: cited from earlier work.

“Also recorded” adds a separate entry of the source.

One may read the Ki as a measure of affinity in units of concentration, obtained from inhibition or displacement. For the compound `N[C@H]1C[C@@H](C(=O)O)CC1=C(C(F)(F)F)C(F)(F)F` [6c, (1S,3S)-3-amino-4-(hexafluoropropan-2-ylidenyl)cyclopentane-1-carboxylic Acid], in assay [1], the “in vivo antitumor efficacy” value is “potent in vivo antitumor efficacy”. For the same compound, the Ki at hOAT [2] is 65 ± 10 µM.

As to `N[C@H]1C=C(C(=O)O)C[C@H]1C(F)F` [10b, (3S,4R)-3-Amino-4-(difluoromethyl)cyclopent-1-ene-1-carboxylic Acid], on hOAT [3], the “fraction undergoing ketimine hydrolysis to product 37 and PMP” value is given as ~ 70%. The “fraction of the reaction forming tight-binding adduct 34” value at hOAT [3] (according to the partition ratio (1/3.38)) is ~ 30%. Moreover, in the assay on Asp-AT, the “inhibitory activity against Asp-AT” value was “weak reversible inhibitory activity”. Further, at hOAT [4] (500 μM of 10b), the “first successive rate constant from fit of CCD data sets (k2’)” value stood at 0.22 s⁻¹, the “second successive rate constant from fit of CCD data sets (k3’)” value worked out at 0.21 s⁻¹ and the “third successive rate constant from fit of CCD data sets (k4)” value came out at 0.03 s⁻¹. For the same compound, the “rate constant for formation of P1 from M2 (k4)” value at hOAT [4] (410 nm, second phase, average) is on record as ~ 0.02 s^−1. Moreover, the “enzyme activity recovered after dialysis” value at hOAT [5] (91 h of dialysis, varying equivalents) is given as “no enzyme activity was recovered”. Moreover, the “inhibitory activity against GABA-AT” value in the assay on GABA-AT [6] is “weak reversible inhibitor; also recorded: weak reversible inhibitory activity”. For the same compound, the “inhibitory activity against Ala-AT” value in the assay with Ala-AT is recorded as “weak reversible inhibitory activity”.

Turning to `N[C@H]1C[C@@H](C(=O)O)CC1=C(F)F` [compound 1, (1S,3S)-3-amino-4-(difluoromethylene)cyclopentane-1-carboxylic acid], at hOAT [5] (48 h of dialysis), the “enzyme activity recovered after dialysis” value is given as “no enzyme activity was recovered”.

Take `N[C@H]1C=C(C(=O)O)CC1=C(F)F` [compound 7, (S)-3-amino-4-(difluoromethylenyl)cyclopent-1-ene-1-carboxylic acid]: the “type of inhibition of GABA-AT” value in the assay with GABA-AT [7] is “partially irreversible inhibitors”. In addition, the “enzyme activity recovered after dialysis” value on hOAT [5] (48 h of dialysis) is given as “no enzyme activity was recovered”.
